Read-outs that look alike come from different tables or passages of the source.
What was measured:
[1] = test system: patients with FGFR-aberrant cholangiocarcinoma
[2] = test system: advanced cholangiocarcinoma subjects with FGFR alterations
Procedure: Tumor assessments: Conducted every 8 (±1) weeks up to 1 year from start of study drug, then every 12 (±1) weeks thereafter until the patient dies, or withdrawal of consent or conclusion of the study, whichever occurs first.
ORR (complete response [CR] or partial response [PR]) and disease control rate (DCR) was calculated with 95% CI.
PFS was represented with descriptive summary statistics; Kaplan-Meier method was used for evaluation.

[3] = LUC2001 (NCT02699606): pharmacokinetics and PK/PD (serum phosphate); format: in vivo, human
Procedure: Pharmacodynamic and safety: Serum phosphate concentration was continuously monitored as a pharmacodynamic endpoint during the study to facilitate dose adjustment per protocol specification. Serum phosphate was measured on cycle 1 day 14 for pharmacodynamic uptitration. On study, serum phosphate concentration was set to be below 7 mg/dL in order to avoid prolonged hyperphosphatemia.
Post hoc visual predictive check was performed on an existing population PK model, built with data from 373 patients with various tumor types (majority were caucasians).
Post hoc visual predictive check was performed on serum phosphate concentration data based on an existing population PK/PD model.

[4] = as of 20 Aug. 2018, 11 patients
[5] = conclusion of snapshot 20 Mar. 2018
[6] = snapshot as of 20 Mar. 2018, 8 mg qd
[7] = snapshot as of 20 Mar. 2018, 11 subjects, 8 mg qd
[8] = median follow-up 5.5 mo, 11 patients
[9] = of the 3 partial responses among 11 patients
[10] = as of 20 Aug. 2018, FGFR2 fusion
[11] = as of 20 Aug. 2018, patients with FGFR2 alteration (n=9)
[12] = snapshot as of 20 Mar. 2018, 11 response evaluable, 8 mg qd

## COc1cc(OC)cc(N(CCNC(C)C)c2ccc3ncc(-c4cnn(C)c4)nc3c2)c1 [erdafitinib, N-(3,5-dimethoxy-phenyl)-N′-(1-methylethyl)-N-[3-(1-methyl-1H-pyrazol-4-yl)quinoxalin-6-yl]ethane-1,2-diamine]
Erdafitinib 8 mg (QD), N = 11
  Drug-related TEAE Alanine aminotransferase increased, Any grade: 2 N
  Drug-related TEAE Aspartate aminotransferase increased, Any grade: 2 N
  Drug-related TEAE Constipation, Any grade: 3 N
  Drug-related TEAE Decreased appetite, Any grade: 3 N
  Drug-related TEAE Diarrhoea, Any grade: 3 N
  Drug-related TEAE Dry eye, Any grade: 2 N
  Drug-related TEAE Dry mouth, Any grade: 8 N
  Drug-related TEAE Dry mouth, ≥Grade 3: 1 N
  Drug-related TEAE Dry skin, Any grade: 5 N
  Drug-related TEAE Dry skin, ≥Grade 3: 1 N
  Drug-related TEAE Hyperphosphataemia, Any grade: 10 N
  Drug-related TEAE Hyponatremia, Any grade: 1 N
  Drug-related TEAE Hyponatremia, ≥Grade 3: 1 N
  Drug-related TEAE Nail disorder, Any grade: 4 N
  Drug-related TEAE Nail disorder, ≥Grade 3: 1 N
  Drug-related TEAE Nausea, Any grade: 2 N
  Drug-related TEAE Onycholysis, Any grade: 1 N
  Drug-related TEAE Onycholysis, ≥Grade 3: 1 N
  Drug-related TEAE Onychomycosis, Any grade: 2 N
  Drug-related TEAE Palmar-plantar erythrodysaesthesia syndrome, Any grade: 4 N
  Drug-related TEAE Paronychia, Any grade: 3 N
  Drug-related TEAE Paronychia, ≥Grade 3: 1 N
  Drug-related TEAE Punctate keratitis, Any grade: 2 N
  Drug-related TEAE Stomatitis, Any grade: 8 N
  Drug-related TEAE Stomatitis, ≥Grade 3: 2 N
  Patients with drug-related TEAEs, Any grade: 11 N
  Patients with drug-related TEAEs, ≥Grade 3: 6 N
As of 20 Aug. 2018, 8 mg once daily
  patients reporting Grade 3 or higher TEAEs: 6/11
[4]
  AE leading to treatment discontinuation or death: no AE
  most common TEAEs: hyperphosphatemia, dry mouth, stomatitis, dry skin, nail disorder, and palmar-plantar erythrodysaesthesia syndrome
As of 20 Aug. 2018, 11 patients, 8 mg once daily
  patients who experienced drug-related TEAEs: All patients
As of 20 Aug. 2018, of 11 (27.3%), upper gastrointestinal haemorrhage, pyelonephritis acute, pathological fracture, n=1 each
  Serious TEAEs (not drug-related): 3 patients
As of 20 Aug. 2018, of 11 patients (45.5%)
  Drug-related TEAEs leading to dose reduction: 5 patients
As of 20 Aug. 2018, of 11 patients (54.5%)
  Grade 3 or higher drug-related TEAEs: Six
As of 20 Aug. 2018, of 11 patients (100%)
  drug-related TEAEs leading to dose interruption: 11 patients
[5]
  safety profile in patients with FGFR-aberrant advanced cholangiocarcinoma: tolerable safety profile
[6]
  AE diarrhea (subjects): 4/11
  AE dry mouth (subjects): 7/11
  AE hyperphosphatemia (subjects): 8/11
  AE nail disorder (subjects): 4/11
  AE palmar-plantar erythrodysaesthesia syndrome (subjects): 4/11
  AE stomatitis (subjects): 7/11
[7]
  AE leading to treatment discontinuation or death: no AE
  drug related SAE: no drug related SAE
  subjects who experienced AEs: All subjects
  subjects who experienced Grade 3 or worse AEs: 7
  subjects who experienced serious AEs (SAEs): 3
  subjects with AEs leading to dose reduction: 3
  subjects with AEs leading to drug interruption: all
[1]; 9 mg QD or 10 mg intermittent, all responses at 10 mg intermittent
  objective response rate: 27.3%
[1]; 11 patients with FGFR-aberrant cholangiocarcinoma, 9 mg QD (n=1) or 10 mg intermittent (n=10)
  partial responses (number of patients): 3
[1]; 11 patients, 9 mg QD or 10 mg intermittent, 6/11
  Overall disease control rate, including stable disease: 54.5%
[1]; [8]
  6-mo progression-free survival rate: 36%
  9-mo progression-free survival rate: 24%
[1]; median follow-up 5.5 mo, 95% CI 1.6 to 11.8 mo
  Median progression-free survival: 5.1 mo
[1]; [9]
  partial responses in patients with fusion FGFR2-BICC1: 1
  partial responses in patients with fusion FGFR2-CCAR1: 1
[2]; as of 20 Aug. 2018, 11 response evaluable, 8 mg once daily, n=5, 95% CI 16.7;76.6
  ORR - Objective Response Rate (CR+PR): 45.5%
[2]; as of 20 Aug. 2018, 11 response evaluable, 8 mg once daily, n=6, 95% CI 23.4;83.3
  ORR (CR+PR+uCR+uPR): 54.5%
[2]; as of 20 Aug. 2018, 11 response evaluable, 8 mg once daily, n=8, 95% CI 39.0;94.0
  Disease Control Rate-DCR (CR+PR+SD): 72.7%
[2]; as of 20 Aug. 2018, 11 response evaluable, 8 mg once daily, n=9, 95% CI 48.2;97.7
  DCR (CR+PR+uCR+uPR+SD): 81.8%
[2]; as of 20 Aug. 2018, 95% CI 11, 68
  9-months PFS rate: 40%
[2]; [10]
  stable disease (SD), number of patients: 3
  unconfirmed PR, number of patients: 1
[2]; as of 20 Aug. 2018, all FGFR2 alteration (1 mutation and 4 fusions)
  confirmed PR, number of patients: 5
[2]; as of 20 Aug. 2018, both with FGFR3 mutations and concurrent KRAS mutations
  progressive disease (PD), number of patients: 2
[2]; [11]
  9-months PFS rate: 49%
  DCR: 100%
  ORR (CR+PR+uCR+uPR): 66.7%
[2]; one PR patient with a FGFR2-KIAA1598 fusion
  maximum tumor shrinkage: −46.2%
[2]; [12]
  DCR (CR+PR+uCR+uPR+SD): 81.8%
  ORR (CR+PR+uCR+uPR): 45.5%
  PD, number of subjects: 2
  partial response (PR), number of subjects: 3
  stable disease (SD), number of subjects: 4
  unconfirmed PR (uPR), number of subjects: 2
[3]; as of 20 Aug. 2018, post hoc visual predictive check on population PK and PK/PD models
  results of PK and PK/PD relationship in Asian patients with advanced CCA: consistent with that known from patients with other types of solid tumor and different ethnic background
[3]; [5]
  PK characteristics: consistent with data from other erdafitinib studies
